Assay results as given in paper PMC11234460, “In Silico Discovery of Stapled Peptide Inhibitor Targeting the Nur77‐PPARγ Interaction and Its Anti‐Breast‐Cancer Efficacy” (Advanced Science, 2024).
Where a SMILES comes first, the peptide text is derived from it. Bridges are numbered along the chain shown (N, C = ends). [ ]: non-standard residue; d: D form. S5 = C=CCCC[C@](C)(N)C(=O)O

What was measured:
MDA-MB-231 cells [1] = assay: Transwell cell migration analysis; assay type: cell-based; conditions: MDA-MB-231, 12 h
Protocol: 600 µL DMEM complete medium was added to the lower chamber of the Transwell. Next, 2×10^4 cells in 100 µL DMEM medium, containing 1, 2, 5, 10, or 2 × 10^−5 M peptides, were added to the upper chamber of the Transwell. The cells were incubated for 12 h at 37 °C and 5% CO2. After the incubation period, the medium was discarded, and the chamber was washed with PBS. The cells were then fixed with 4% paraformaldehyde for 20 min. The upper chamber was subsequently soaked in crystal violet for 20 min, washed with PBS, and observed under a microscope for analysis.

MDA-MB-231 cells [2] = assay: Energy metabolism analysis (Seahorse OCR); assay type: cell-based; conditions: MDA-MB-231, 24 h treatment, n = 3
Protocol: Cell energy metabolism analysis was conducted using a Seahorse cell energy metabolism analyzer (Agilent, USA). In brief, 8000 cells were seeded per well in a 96‐well XF96 plate (Agilent, 103794‐100) and cultured overnight. Subsequently, the cells were treated with various concentrations of peptides for 24 h. To prepare for metabolic stress injections, cartridge plates (Agilent, w15023) were hydrated with H2O for at least 12 h at 37 °C before the assay. 1 h before detection, the medium in each well was replaced with 180 µL XF calibrant solution (Agilent, 100840‐000), Afterward, the cell plate was replaced with 180 µL XF DMEM (Agilent, 103575‐100) with glucose (1 × 10^−2 M) (Agilent, 103577‐100), pyruvate (1 × 10^−3 M) (Agilent, 103578‐100) and glutamine (2 × 10^−3 M) (Agilent, 103579‐100) and the mixture was incubated in a CO2‐free incubator at 37 °C for 1 h. Then, 20 µL basic medium, 22 µL 1.5 × 10^−4 M oligomycin, 25 µL 1.5 × 10^−4 M FCCP, and 27 µL 5 × 10^−5 M ROT/AA (Agilent, 10315‐100) were added to wells A, B, C, and D, respectively, of the cartridge plates. The assay was carried out according to the manufacturer's instructions, and the OCR was reported in picomoles per min. The results were normalized to the cell number determined by the CCK‐8 assay.

Nur77-PPARγ complex = target: T1, Nur77-PPARγ complex (Homo sapiens, UniProt P22736); assay: NanoBiT assay of Nur77-PPARγ complex formation in HEK293T cells; assay type: cell-based; conditions: 1 × 10^−5 M peptide, 1 h, n = 3
T1 construct: expressed in transfected cells; host or cells: HEK293T
Protocol: HEK293T cells were seeded in a poly‐d‐lysine‐coated black 96‐well cell culture plate at 10 000 cells per well in 100 µL culture medium. The next day, the master mix of 100 ng receptor construct containing the PPARγ‐LargeBit and SmallBit‐Nur77 plasmids (w/w, 50 ng:50 ng) was diluted in Opti‐MEM Medium (Gibco, 11058‐021), then P3000 Reagent was added. Meanwhile, 0.15 µL Lipofectamine 3000 reagent (ThermoFisher, L3000015) was added to 5 µL Opti‐MEM Medium. Subsequently, diluted DNA was added to Lipofectamine 3000 reagent (V/V, 1:1) and incubated for 15 min at room temperature. A mixture containing the above plasmids and Lipofectamine 3000 was prepared and added to each well. After 24 h, the cells were treated with 1 × 10^−5 M peptides (TAT, T‐CY14, S‐CY14, and ST‐CY14) or variable concentrations of ST‐CY‐14 (0.1/0.2/0.5/1/2/5/10/20/40 × 10^−6 M) for 1 h. The culture medium was replaced with 90 µL Tyrode's solution (Solarbio, T1420). Then, 10 µL furimazine (5 × 10^−5 M) was added to each well and the luminescence signal was measured every 86 s for 1 h at 37 °C.

MDA-BoM-1833 cells = assay: Cell viability assay (CCK-8); assay type: cell-based; conditions: MDA-BoM-1833, 5 × 10^−6 M, 24 h
Protocol: MCF7, MDA‐MB‐231, and MDA‐BoM‐1833 cells (5000 cells/well) were seeded in 96‐well plates and cultured overnight at 37°C and 5% CO2. The cells were then treated with fresh basic medium containing various concentrations (1/2/5/10/20 × 10^−6 M) of compounds. After 24 h of incubation, the cells were incubated with a basic medium containing 10% Cell Counting Kit‐8 (Dojindo, CK‐04) for 2 h. Cell viability was evaluated by measuring the absorbance at 450 nm. The formula used was [(As‐Ab)/(Ac‐Ab)] × 100%, where as represents the absorbance of the drug‐treated group, Ac represents the absorbance of the control group treated with medium, and Ab represents the absorbance of the blank control containing only medium.

[3] = tested on: MDA-BoM-1833 bone metastasis; assay: Bone metastatic breast cancer model (MDA-BoM-1833, left ventricle injection); assay type: in vivo, mouse
From the text: Female BALB/c mice (4–5 weeks old, 16–18 g) and BALB/c mice (7–8 weeks old, 18–20 g) were provided by Shanghai Slake Experimental Animal Co., Ltd., and housed under specific pathogen‐free conditions for use in orthotopic xenograft tumor model experiments and bone metastasis tumor model experiments. The animal experiment was approved by the ethical committee of Shanghai University of Traditional Chinese Medicine (approval number: PZSHUTCM220627036).
To establish the bone metastasis tumor model, 1×10^5 cells were injected into the left ventricle of each mouse (7–8 weeks old), and surgery was monitored using a cardiac ultrasound instrument. The mice were randomly divided into three groups and treated with PBS (control group, n = 6), 5 mg kg^−1 ST‐CY14 (n = 6), and 10 mg kg^−1 ST‐CY14 (n = 6) Tumor cell metastasis was monitored using an in vivo imaging instrument (IVIS Spectrum, PerkinElmer, USA). by intraperitoneal injection of 20 mg kg^−1 D‐luciferin. The mice were treated with ST‐CY14 via intravenous injection using a 100 µL PBS solution every 2 days starting on the designated day after tumor cell injection. Bone tissue with MDA‐BoM‐1833 cell metastasis was obtained and stained for TRAP. The mice sera were collected and analyzed for BSP and β‐CTx levels using ELISA (Lengton, BPE10823, BPE10438). For the orthotopic xenograft tumor model, 3×10^6 cells were injected into the fourth pair of breast pads on the left side of the mouse (4–5 weeks old). The mice were treated with ST‐CY14 every two days once the tumor volume reached 30–50 mm^3, with the same groups as in the bone metastasis tumor model. The tumors were collected and stained for H&E, Ki‐67, and TUNEL assays, which were conducted by Wuhan Servicebio Technology Co., Ltd. Major organs (heart, liver, spleen, lung, and kidney) were also collected for H&E analysis by Wuhan Servicebio Technology Co., Ltd. The Transcriptome and LC/MS targeted lipid metabolome were sequenced by OE Biotech, Inc., Shanghai, China. To evaluate the efficacy of Csn‐B in inhibiting breast cancer bone metastasis, an animal model was established as described above. The mice were randomly divided into three groups and treated with PBS (control group, n = 6), 10 mg kg^−1 ST‐CY14 (n = 6) in 100 µL PBS solution, and 5 mg kg^−1 ST‐CY14 (n = 6) in a 100 µL mixed solution (5% DMSO, 20% PEG 400, 5% Tween 80, and 70% normal saline) via intravenous injection every 2 days starting on the designated day after tumor cell injection.

T1 sequence (P22736 whole entry, one chain of several): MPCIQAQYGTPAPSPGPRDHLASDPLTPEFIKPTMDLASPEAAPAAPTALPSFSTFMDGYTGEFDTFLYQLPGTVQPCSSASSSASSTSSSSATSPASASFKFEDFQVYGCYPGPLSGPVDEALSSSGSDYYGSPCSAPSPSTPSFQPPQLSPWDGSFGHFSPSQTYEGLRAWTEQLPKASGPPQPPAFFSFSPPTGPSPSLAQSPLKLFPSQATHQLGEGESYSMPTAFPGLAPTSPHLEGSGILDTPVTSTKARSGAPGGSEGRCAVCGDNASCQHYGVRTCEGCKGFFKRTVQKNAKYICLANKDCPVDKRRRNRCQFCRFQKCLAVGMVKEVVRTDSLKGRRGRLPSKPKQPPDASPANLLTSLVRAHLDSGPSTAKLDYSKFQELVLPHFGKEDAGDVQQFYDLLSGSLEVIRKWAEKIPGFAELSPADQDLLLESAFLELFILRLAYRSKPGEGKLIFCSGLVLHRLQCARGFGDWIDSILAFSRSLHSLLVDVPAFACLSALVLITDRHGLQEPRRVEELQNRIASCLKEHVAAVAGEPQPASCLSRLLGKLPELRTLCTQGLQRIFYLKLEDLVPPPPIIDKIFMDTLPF

C[C@@H](O)[C@@H]1NC(=O)[C@H](CCCNC(=N)N)NC(=O)[C@H](CCCNC(=N)N)NC(=O)[C@@](C)(NC(=O)[C@H](Cc2ccccc2)NC(=O)CNC(=O)[C@H](CCCCN)NC(=O)[C@H](CS)NC(=O)CNC(=O)[C@H](CCC(=O)O)NC(=O)[C@@H](N)CS)CCCC=CCCC[C@@](C)(C(=O)N[C@@H](CCCNC(=N)N)C(=O)N[C@@H](Cc2ccc(O)cc2)C(=O)N[C@@H](Cc2ccc(O)cc2)C(=O)NCC(=O)N[C@@H](CCCNC(=N)N)C(=O)N[C@@H](CCCCN)C(=O)N[C@@H](CCCCN)C(=O)N[C@@H](CCCNC(=N)N)C(=O)N[C@@H](CCCNC(=N)N)C(=O)N[C@@H](CCC(N)=O)C(=O)N[C@@H](CCCNC(=N)N)C(=O)N[C@@H](CCCNC(=N)N)C(=O)N[C@@H](CCCNC(=N)N)C(N)=O)NC1=O [ST-CY14] (H-CEGCKGF[S5]RRT[S5]RYYGRKKRRQRRR-NH2; staple 8-12)
Transwell transmigration (MDA-MB-231 cells [1]): inhibited the transmigration
Oxygen consumption rate (OCR) (MDA-MB-231 cells [2]): significantly reduced
Effect on NanoBiT luminescence (Nur77-PPARγ complex) (Nur77-PPARγ complex): effectively inhibited the formation of the Nur77‐PPARγ complex
Cell viability / proliferation (MDA-BoM-1833 cells): significantly attenuated breast tumor cell proliferation
Bone metastasis (bioluminescence imaging) ([3]; 5 and 10 mg kg^−1 i.v. every 2 days, day 28, n = 6): inhibited the metastasis of tumor cells
H&E staining of major organs ([3]; heart, liver, spleen, lung, kidney, n = 3): None of the groups demonstrated notable changes in H&E staining of major organs
Efficacy in inhibiting bone metastasis compared with Csn-B ([3]; i.v. every 2 days, day 28, n = 6): superior to that of Csn‐B
TRAP level in mouse femoral head ([3]; staining of bone tissue): decrease in the level of tartrate‐resistant acid phosphatase
BSP and β-CTx levels in mouse blood (ELISA) ([3]; versus control group): Lower levels
